Data: patent EP4578856A1, “HETEROCYCLIC COMPOUND” (Ubience Inc., priority 2022, dated 2024)

Columns and labels:
FAK protein = FAK protein (Homo sapiens, UniProt Q05397); assay: Degradation inducing activity of FAK protein in PA-1 cells, Western blotting (Simple Western JESS); type: cell-based; set-up: endogenous in cells; host or cells: PA-1 (ATCC CRL-1572); details: at 10 µM, 24 hours
Procedure: In vitro degradation inducing activity of FAK protein of compounds of Examples was evaluated by Western Blotting (WB).
By a test compound, 10 mM DMSO solution was prepared, which was used as a 10 µM test compound solution. Further, the solution was diluted 10-fold with DMSO to prepare a 1 mM solution, which was used as a 1 µM test compound solution.
PA-1 cells (ATCC: CRL-1572, Lot: 70055709) were cultured in Eagle's Minimum Essential Medium supplemented with 10% FBS and 1% Penicillin/Streptomycin. The PA-1 cells seeded in a 24 well plate at 200,000 cells/well/1 mL were cultured for 24 hours, and then 1 µL of DMSO or a test compound solution was added thereto and treatment was performed for 24 hours. Cells were harvested and lysed for 20 minutes on ice using RIPA lysis buffer (Sigma, Cat#R0278) supplemented with protease inhibitor cocktail (Sigma, Cat#P8340; Roche, Cat#P11873580001), and phosphatase inhibitor cocktail (Sigma, Cat#P5726, P0044). The lysate was sonicated (15 seconds, amplitude 30%, 1 cycle) and then centrifuged at 12500 rpm for 15 minutes at 4°C. The protein concentration was determined by BCA assay kit (Thermo Fisher Scientific, Cat#23225).
The western blotting was performed using Simple Western JESS (protein simple). A cell lysis sample (protein amount; about 2 µg) was loaded on a plate of Simple Western JESS, and the expression level of […] was detected using a 12-230 kDa Wes Separation Module (Protein simple, Cat#SM-WO04), an Anti-Rabbit Detection Module for Wes (Protein simple, Cat#DM-001), and a Total Protein Detection Module for Wes (Protein simple, Cat#DM-TP01). As the primary antibody, a material obtained by diluting FAK Rabbit mAb (Cell Signaling Technology, Cat#3285) at 1:100 was used, and as the secondary antibody, a material obtained by diluting HRP-labeled anti-rabbit IgG antibody (Cell Signaling Technology, Cat#7074S) at 1:250 was used. The expression level of the target protein was standardized using the total protein amount loaded as a reference. The standardized expression level data of the control (DMSO) was taken as 100%, and the degradation rate (%) was calculated from the average standardized expression level data of the test compounds (compounds of Examples 109 to 128). All analysis steps, such as data detection and analysis, are fully automated.

ROCK2 protein [1] = target: T1, ROCK2 protein (Homo sapiens, UniProt O75116); assay: Degradation inducing activity of ROCK2 protein in HUVEC cells, Western blotting (Simple Western JESS); type: cell-based; set-up: endogenous in cells; host or cells: HUVEC (ATCC CRL-1730); details: HUVEC, 24 h; for inhibition at 1 µM: degradation rate at 1 µM; for inhibition at 10 µM: degradation rate at 10 µM
Summary of the method: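 HUVEC cells treated 24 h with compound at 10 µM or 1 µM, then lysed; ROCK2 quantified by capillary Western (Simple Western JESS) using rabbit mAb D1B1, normalized to total loaded protein. Degradation rate (%) calculated relative to DMSO control set at 100%, binned A ≥75%, B 50–75%, C 25–50%, D <25%.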
Target sequence in this assay (O75116 whole entry): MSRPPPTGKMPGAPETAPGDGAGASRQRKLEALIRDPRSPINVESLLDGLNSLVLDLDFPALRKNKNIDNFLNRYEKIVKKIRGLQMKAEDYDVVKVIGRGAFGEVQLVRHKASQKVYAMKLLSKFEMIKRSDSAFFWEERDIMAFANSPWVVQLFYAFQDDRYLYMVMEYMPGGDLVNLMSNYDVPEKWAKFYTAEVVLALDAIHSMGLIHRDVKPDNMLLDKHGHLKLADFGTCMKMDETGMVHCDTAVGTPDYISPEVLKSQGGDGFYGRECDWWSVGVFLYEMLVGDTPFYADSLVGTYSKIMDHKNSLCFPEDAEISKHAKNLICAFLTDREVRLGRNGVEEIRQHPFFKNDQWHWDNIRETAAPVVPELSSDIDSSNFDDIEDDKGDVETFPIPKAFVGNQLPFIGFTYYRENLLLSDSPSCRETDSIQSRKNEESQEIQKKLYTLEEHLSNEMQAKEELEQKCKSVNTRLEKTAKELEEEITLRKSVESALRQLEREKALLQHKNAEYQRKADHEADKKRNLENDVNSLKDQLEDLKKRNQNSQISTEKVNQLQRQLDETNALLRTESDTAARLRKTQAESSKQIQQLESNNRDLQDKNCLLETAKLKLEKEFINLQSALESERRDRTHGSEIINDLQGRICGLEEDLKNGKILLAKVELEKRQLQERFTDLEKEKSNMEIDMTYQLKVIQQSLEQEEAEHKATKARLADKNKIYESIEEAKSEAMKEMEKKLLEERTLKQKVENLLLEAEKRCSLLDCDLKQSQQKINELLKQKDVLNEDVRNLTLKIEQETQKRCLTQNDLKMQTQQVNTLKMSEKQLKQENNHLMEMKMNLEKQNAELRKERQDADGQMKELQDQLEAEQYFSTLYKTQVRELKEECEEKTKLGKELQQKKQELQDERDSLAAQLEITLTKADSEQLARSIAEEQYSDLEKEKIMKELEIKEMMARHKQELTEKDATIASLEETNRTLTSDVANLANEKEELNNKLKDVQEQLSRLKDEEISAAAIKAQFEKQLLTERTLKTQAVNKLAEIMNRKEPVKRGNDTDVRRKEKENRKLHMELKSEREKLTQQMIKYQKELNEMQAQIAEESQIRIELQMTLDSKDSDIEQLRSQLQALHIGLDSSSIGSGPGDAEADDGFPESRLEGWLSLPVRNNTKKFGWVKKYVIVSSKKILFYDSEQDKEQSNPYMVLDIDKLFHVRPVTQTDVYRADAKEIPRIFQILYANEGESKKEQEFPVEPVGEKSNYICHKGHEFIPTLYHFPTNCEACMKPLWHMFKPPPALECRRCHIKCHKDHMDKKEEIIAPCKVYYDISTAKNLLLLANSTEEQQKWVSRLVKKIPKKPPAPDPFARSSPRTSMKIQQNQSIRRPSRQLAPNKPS

ROCK2 protein [2] = target: T1, ROCK2 protein; assay: ROCK2 kinase inhibitory activity, mobility shift assay (MSA, Carna Biosciences); type: biochemical; set-up: GST (N); purchased Carna Biosciences, Inc; host or cells: baculovirus expression system; details: read-out: ROCK2 inhibition rate; for inhibition at 0.03 µM: evaluation concentration 0.03 µM
Procedure: The ROCK2 kinase inhibitory activity was measured using a mobility shift assay (MSA) provided by Carna Biosciences, Inc.
The test compound was dissolved in DMSO and further diluted with DMSO to prepare a solution having a concentration 100 times the evaluation concentration. The solution was further diluted 25 times with an assay buffer (20 mmol/L HEPES, 0.01% Triton (registered trademark) X-100, 1 mmol/L DTT, pH 7.5) to obtain a test compound solution.
The human ROCK2 kinase was expressed by fusing the catalytic domain (1 to 553 amino acids of Accession No. NP_004841.2) with GST at the N-terminus using the baculovirus expression system. GST-ROCK2 was purified by glutathione sepharose chromatography.
A 4-fold concentration substrate (LIMKtide, 1000 nmol/L) /ATP (5 µmol/L)/metal solution (Mg, 5 mmol/L) was prepared with kit buffer (20 mmol/L HEPES, 0.01% Triton (registered trademark) X-100, 5 mmol/L DTT, pH 7.5). A 2-fold concentration kinase solution was prepared with assay buffer. 5 µL of a 4-fold concentration test compound solution, 5 µL of a 4-fold concentration substrate/ATP/metal solution, and 10 µL of a 2-fold concentration kinase solution were mixed in a well of a polypropylene 384 well plate, and the mixture was reacted at room temperature for 1 hour. 70 µL of termination buffer (127 mmol/L HEPES, 0.01% Triton (registered trademark) X-100, 26.7 mmol/L EDTA-2Na, 1% DMSO, pH 7.5) was added to stop the reaction. The substrate peptide and the phosphorylated peptide in the reaction solution were separated and quantified using a LabChip (trademark) system (Perkin Elmer).
The kinase reaction was evaluated by the product ratio (P/(P + S)) calculated from the substrate peptide peak height (S) and the phosphorylated peptide peak height (P).
The average signal of the control well including all the reaction components was set to 0% suppression, the average signal of the background well (no enzyme added) was set to 100% suppression, and the inhibition rate was calculated from the average signal of the test compound test well.
The ROCK2 inhibition rate and the evaluation concentration of the test compound are shown in Table 4-1, and the IC50 value of the inhibitory activity is shown in Table 4-2. […]
Target sequence in this assay (O75116 1-553): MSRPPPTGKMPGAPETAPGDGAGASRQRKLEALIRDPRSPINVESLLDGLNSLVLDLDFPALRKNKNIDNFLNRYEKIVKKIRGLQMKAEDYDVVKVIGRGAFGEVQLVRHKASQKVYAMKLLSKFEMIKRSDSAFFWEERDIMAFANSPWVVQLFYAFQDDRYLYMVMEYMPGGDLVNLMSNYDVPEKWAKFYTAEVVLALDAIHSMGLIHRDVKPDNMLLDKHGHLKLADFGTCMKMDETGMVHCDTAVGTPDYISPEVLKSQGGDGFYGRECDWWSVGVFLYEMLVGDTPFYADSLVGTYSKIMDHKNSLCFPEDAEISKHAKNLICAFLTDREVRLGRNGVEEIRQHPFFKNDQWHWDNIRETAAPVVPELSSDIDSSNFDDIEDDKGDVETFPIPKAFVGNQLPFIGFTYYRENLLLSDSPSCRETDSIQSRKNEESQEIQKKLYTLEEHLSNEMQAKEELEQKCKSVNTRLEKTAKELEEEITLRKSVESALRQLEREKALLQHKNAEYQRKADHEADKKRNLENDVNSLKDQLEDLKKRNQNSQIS

Chain of FAK protein (Q05397 whole entry): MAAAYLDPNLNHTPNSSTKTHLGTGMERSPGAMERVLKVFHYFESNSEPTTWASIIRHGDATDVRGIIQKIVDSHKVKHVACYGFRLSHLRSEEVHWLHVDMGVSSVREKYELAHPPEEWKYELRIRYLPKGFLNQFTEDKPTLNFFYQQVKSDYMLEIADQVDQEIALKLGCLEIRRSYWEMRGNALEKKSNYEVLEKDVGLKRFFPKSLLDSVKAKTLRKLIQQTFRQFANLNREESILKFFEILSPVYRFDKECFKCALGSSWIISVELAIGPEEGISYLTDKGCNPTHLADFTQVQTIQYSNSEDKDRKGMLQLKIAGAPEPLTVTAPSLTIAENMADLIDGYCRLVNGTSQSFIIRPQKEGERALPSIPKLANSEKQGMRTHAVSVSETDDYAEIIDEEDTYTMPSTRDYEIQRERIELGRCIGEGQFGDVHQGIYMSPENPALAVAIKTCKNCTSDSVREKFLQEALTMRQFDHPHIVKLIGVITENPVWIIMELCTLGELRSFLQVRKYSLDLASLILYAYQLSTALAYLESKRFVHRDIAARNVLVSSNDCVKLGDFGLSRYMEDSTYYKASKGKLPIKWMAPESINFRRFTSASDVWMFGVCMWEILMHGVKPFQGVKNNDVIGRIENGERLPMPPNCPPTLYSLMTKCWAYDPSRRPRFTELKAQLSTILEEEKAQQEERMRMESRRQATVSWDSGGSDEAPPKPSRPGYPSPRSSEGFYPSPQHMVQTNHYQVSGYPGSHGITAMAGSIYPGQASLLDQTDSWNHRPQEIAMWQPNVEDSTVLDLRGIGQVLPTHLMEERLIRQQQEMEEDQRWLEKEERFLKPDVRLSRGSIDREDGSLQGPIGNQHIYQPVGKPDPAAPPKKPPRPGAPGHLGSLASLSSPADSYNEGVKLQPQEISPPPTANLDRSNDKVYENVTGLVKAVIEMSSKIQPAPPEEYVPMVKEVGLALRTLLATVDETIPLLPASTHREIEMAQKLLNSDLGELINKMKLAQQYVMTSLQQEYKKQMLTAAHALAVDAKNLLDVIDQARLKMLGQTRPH

Row | Compound | FAK protein degradation rate (FAK protein) [%] | inhibition at 1 µM (ROCK2 protein [1]) [%] | inhibition at 10 µM (ROCK2 protein [1]) [%] | other results
1 | 2-(4-((6-(4-Fluorobenzyl)-1-(2-((2R,5R)-2-(methoxymethyl)-5-methylpiperazin-1-yl)acetyl)-3,3-dimethyl-2,3-dihydro-1H-pyrrolo[3,2-b]pyridin-5-yl)methyl)piperazin-1-yl)-N-(4-((4-((3-(methylsulfonyl)benzyl)amino)-5-(trifluoromethyl)pyrimidin-2-yl)amino)phenyl)acetamide [Example 114] | ≥ 75 |  |  | 
2 | COC[C@H]1CN[C@H](C)CN1CC(=O)N1CC(C)(C)c2ncc(Cc3cccc(OCCOCCOCCOCCOCCOCCOCCOCCN[C@H](Cc4cccc(F)c4)C(=O)Nc4ccc(-c5ccncc5)cc4)c3)cc21 [Example 56, (R)-2-(3-Fluorobenzyl)-26-(3-((1-(2-((2R,5R)-2-(methoxymethyl)-5-methylpiperazin-1-yl)acetyl)-3,3-dimethyl-2,3-dihydro-1H-pyrrolo[3,2-b]pyridin-6-yl)methyl)phenoxy)-N-(4-(pyridin-4-yl)phenyl)-6,9,12,15,18,21,24-heptaoxa-3-azahexacosanamide] |  | 50 to 75 | 50 to 75 | inhibition at 1 µM (ROCK2 protein [2]; evaluation concentration 1 µM): < 25%
3 | C[C@@H]1CN(CC(=O)N2CC(C)(C)c3ncc(Cc4ccc(F)cc4)cc32)[C@@H](CN(C)CCOCCOCC(=O)Nc2ccc(Nc3ncc(C(F)(F)F)c(NCc4cccc(S(C)(=O)=O)c4)n3)cc2)CN1 [Example 110, 2-(2-(2-((((2R,5R)-1-(2-(6-(4-fluorobenzyl)-3,3-dimethyl-2,3-dihydro-1H-pyrrolo[3,2-b]pyridin-1-yl)-2-oxoethyl)-5-methylpiperazin-2-yl)methyl) (methyl)amino)ethoxy)ethoxy)-N-(4-((4-((3-(methylsulfonyl)benzyl)amino)-5-(trifluoromethyl)pyrimidin-2-yl)amino)phenyl)acetamide] | ≥ 75 |  |  | 
4 | C[C@@H]1CN(CC(=O)N2CC(C)(C)c3ncc(Cc4ccc(F)cc4)cc32)[C@@H](CN(C)CCOCCOCCOCCOCC(=O)Nc2ccc(Nc3ncc(C(F)(F)F)c(NCc4cccc(S(C)(=O)=O)c4)n3)cc2)CN1 [Example 112, 1-((2R,5R)-1-(2-(6-(4-Fluorobenzyl)-3,3-dimethyl-2,3-dihydro-1H-pyrrolo[3,2-b]pyridin-1-yl)-2-oxoethyl)-5-methylpiperazin-2-yl)-2-methyl-N-(4-((4-((3-(methylsulfonyl)benzyl)amino)-5-(trifluoromethyl)pyrimidin-2-yl)amino)phenyl)-5,8,11,14-tetraoxa-2-azahexadecan-16-amide] | ≥ 75 |  |  | 
5 | COC[C@H]1CN[C@H](C)CN1CC(=O)N1CC(C)(C)c2ncc(Cc3ccccc3OCCN3CCN(CC(=O)Nc4ccc(Nc5ncc(C(F)(F)F)c(NCc6cccc(S(C)(=O)=O)c6)n5)cc4)CC3)cc21 [Example 119, 2-(4-(2-(2-((1-(2-((2R,5R)-2-(Methoxymethyl)-5-methylpiperazin-1-yl)acetyl)-3,3-dimethyl-2,3-dihydro-1H-pyrrolo[3,2-b]pyridin-6-yl)methyl)phenoxy)ethyl)piperazin-1-yl)-N-(4-((4-((3-(methylsulfonyl)benzyl)amino)-5-(trifluoromethyl)pyrimidin-2-yl)amino)phenyl)acetamide] | ≥ 75 |  |  | 
6 | COC[C@H]1CN[C@H](C)CN1CC(=O)N1CC(C)(C)c2ncc(Cc3cccc(OCCN4CCN(CC(=O)Nc5ccc(Nc6ncc(C(F)(F)F)c(NCc7cccc(S(C)(=O)=O)c7)n6)cc5)CC4)c3)cc21 [Example 124, 2-(4-(2-(3-((1-(2-((2R,5R)-2-(Methoxymethyl)-5-methylpiperazin-1-yl)acetyl)-3,3-dimethyl-2,3-dihydro-1H-pyrrolo[3,2-b]pyridin-6-yl)methyl)phenoxy)ethyl)piperazin-1-yl)-N-(4-((4-((3-(methylsulfonyl)benzyl)amino)-5-(trifluoromethyl)pyrimidin-2-yl)amino)phenyl)acetamide] | ≥ 75 |  |  | 

Further lines, with some results ahead:

Row | FAK protein degradation rate (FAK protein) [%] | inhibition at 1 µM (ROCK2 protein [1]) [%] | inhibition at 10 µM (ROCK2 protein [1]) [%] | Compound | other results
7 |  | 25 to 50 | ≥ 75 | COC[C@H]1CN[C@H](C)CN1CC(=O)N1CC(C)(C)c2nc(CN(C)CCOCCNC[C@@H](C(=O)Nc3ccc4cnccc4c3)c3ccccc3)c(Cc3ccc(F)cc3)cc21 [Example 36, (S)-3-((2-(2-(((6-(4-Fluorobenzyl)-1-(2-((2R,5R)-2-(methoxymethyl)-5-methylpiperazin-1-yl)acetyl)-3,3-dimethyl-2,3-dihydro-1H-pyrrolo[3,2-b]pyridin-5-yl)methyl)(methyl)amino)ethoxy)ethyl)amino)-N-(isoquinolin-6-yl)-2-phenylpropanamide] | inhibition at 0.03 µM (ROCK2 protein [2]): 50 to 75%
8 |  | 50 to 75 | 50 to 75 | COC[C@H]1CN[C@H](C)CN1CC(=O)N1CC(C)(C)c2ncc(Cc3cccc(OCCOCCOCCOCCOCCOCCOCCN[C@H](C)c4ccc(C(=O)Nc5ccncc5)cc4)c3)cc21 [Example 48, 4-((R)-23-(3-((1-(2-((2R,5R)-2-(Methoxymethyl)-5-methylpiperazin-1-yl)acetyl)-3,3-dimethyl-2,3-dihydro-1H-pyrrolo[3,2-b]pyridin-6-yl)methyl)phenoxy)-6,9,12,15,18,21-hexaoxa-3-azatricosan-2-yl)-N-(pyridin-4-yl)benzamide] | inhibition at 10 µM (ROCK2 protein [2]; evaluation concentration 10 µM): ≥ 75%
9 |  | 50 to 75 | ≥ 75 | COC[C@H]1CN[C@H](C)CN1CC(=O)N1CC(C)(C)c2ncc(Cc3ccccc3OCCOCCOCCOCCNC[C@@H](C(=O)Nc3ccc4cnccc4c3)c3ccccc3)cc21 [Example 80, (S)-N-(Isoquinolin-6-yl)-1-(2-((1-(2-((2R,5R)-2-(methoxymethyl)-5-methylpiperazin-1-yl)acetyl)-3,3-dimethyl-2,3-dihydro-1H-pyrrolo[3,2-b]pyridin-6-yl)methyl)phenoxy)-14-phenyl-3,6,9-trioxa-12-azapentadecan-15-amide] | inhibition at 0.03 µM (ROCK2 protein [2]): 25 to 50%
